Results on 14 compounds are retold here after PMC8037142, “Design, Synthesis, Molecular Modeling and Antitumor Evaluation of Novel Indolyl-Pyrimidine Derivatives with EGFR Inhibitory Activity” (Molecules, 2021).

A short description of data set [1]: Resazurin Cell Growth Inhibition Assay, WI38 normal cells. It is filed as cell-based. The note with it: human, WI38 normal lung fibroblast cells, WI-38 normal cells, mean ± SD of three experiments, read-out: Cytotoxic Activity IC50. The procedure:
(§1) Compounds 1–4 were assessed for their in vitro cytotoxic activity against three human cell lines i.e., breast (MCF-7), liver (HepG2), colon (HCT-116) cancer cell lines as well as in lung fibroblast (WI38) normal cell line using the Resazurin Cell Growth Inhibition Assay. Both erlotinib and 5-Fluorouracil (5-FU) were used as reference drugs. Concentrations of the tested compounds that give about 50% inhibition of cell viability (IC50, mean of triplicate) in µM were obtained. […] However, if replaced by a hydrazone substituent, a more prominent efficacy toward the three cancer cell lines was observed. […] The most promising in vitro antiproliferative activity was obtained when the hydrazone is bearing electron-withdrawal groups i.e., 4-chlorobenzylidene moiety (compound 3f), 3,4-dichloro benzylidene moiety (compound 3g) and 4-fluorobenzylidene moiety (compound 3h) compared to the standard treatment (Table 1, Figure 5). The inhibitory activity of compounds was reduced when the hydrazone group is bearing electron donating groups i.e., 4-methyl group (compound 3b), 2-methoxy group (compound 3c), 4-hydroxy (compound 3d) and 4-dimethylamino group (compound 3e). The trend of antiproliferative activity of compounds […] against all tested cell lines has the following descending order: (3g > 3h >3f >3a >3b > 3c > 3d > 3e). […]. […] This is mainly because this compound has the highest lipophilicity as well as less electron density as it has 2-Cl atoms (more electronegativity) on the indolyl pyrimidine-thiazolidinone.
(§2) In vitro cytotoxicity was measured according to the Resazurin Cell Growth Inhibition Assay Alamar Blue or Resazurin (Promega, Mannheim, Germany) reduction assay was used to assess the cytotoxicity of the studied samples. The assay tests cellular viability and mitochondrial function. Briefly, adherent cells were grown in tissue culture flasks, and then harvested by treating the flasks with 0.025% trypsin and 0.25 mM EDTA for 5 min. Once detached, cells were washed, counted, and an aliquot (5 × 10^3 cells) were placed in each well of a 96-well cell culture plate in a total volume of […]. Cells were allowed to attach overnight and then treated with samples. […]. Each assay was performed as triplicates. […] […]. The viability was compared based on a comparison with untreated cells. IC50 (on cancer cells) were the concentration of sample required to inhibit 50% of the cell proliferation and were calculated from a calibration curve by a linear regression using Microsoft Excel.
For orientation: Resazurin is reduced to fluorescent resorufin, in cell work by metabolically active cells.

In data set [2] the test system is HepG2 liver cancer cell line. As to the kind of experiment: Resazurin Cell Growth Inhibition Assay, HepG2. It is filed as cell-based, human. The procedure: as §1, §2
The test system of data set [3] is MCF-7 breast cancer cell line. The data set can be described thus: Resazurin Cell Growth Inhibition Assay, MCF-7. Format: cell-based. The note with it: Homo sapiens, MCF7; MCF-7, 48 h, mean ± SD of three experiments; read-out: Cytotoxic Activity IC50. How it is done: as §1, §2
Data set [4] deals with HCT-116 colon cancer cell line. The data set can be described thus: Resazurin Cell Growth Inhibition Assay, HCT-116. Format: cell-based, human. How it is done: as §1, §2
Data set [5] has as its system Ehrlich ascites carcinoma (EAC). The data set can be described thus: In vivo antitumor assay in EAC tumor bearing mice. Particulars: 0.5 mg/mouse for nine days. The procedure: The antitumor activity of these compounds was assessed by the change in tumor volume, viable cell count, mean survival time (MST) and % increase in lifespan (% ILS) of the EAC tumor bearing mice and 5-FU (standard treatment). The mean survival time (MST) and % increase in lifespan (% ILS) of EAC tumor bearing mice, as well as the influence of these compounds on viable tumor cells and the tumor volume, are shown in Table 2. The hematological profile of these mice was also assessed in comparison with the standard treatment with 5-FU, and no obvious effect on RBCs or WBCs was observed. […] MST = (day of first death + day of last death)/2 %ILS = [(MST of treated group/MST of control group) − 1] × 100 […]
In vivo antitumor evaluation was carried out as previously reported (see Supplementary Materials).
2. Biological Evaluation Details: a) In vivo antitumor assay: Materials . Adult Swiss male mice (weighing 20 -25 g) were obtained from the Department of Pharmacology, Faculty of Pharmacy, Mansoura University, Egypt.
They were kept in microlon boxes at temperature 25 ± 2 °C with a regular 12 hrs light/dark cycle. In addition, food and water were available. EAC cells (procured from NCI, Cairo, Egypt) were harvested and prepared, then their total number was counted.
Procedure. 7 Groups of mice ( n = 4) were used.
Group 1: Negative control (no EAC cells) - received normal saline.
Group 2: Positive control (EAC cells) - received normal saline.
Group 3: EAC cells - treated with compound 3g (0.5 mg/mouse).
Group 4: EAC cells - treated with compound 4f (0.5 mg/mouse).
Group 5: EAC cells - treated with compound 4g (0.5 mg/mouse).
Group 6: EAC cells - treated with compound 4h (0.5 mg/mouse).
Group 7: EAC cells - treated with 5-fluorouracil (0.5 mg/mouse).
2 x 10^6 EAC cells were injected intraperitoneally in each mouse (groups 2-7). After […]
for nine days, then blood samples were withdrawn for assessment of blood count.
Determination of tumor volume
The ascetic fluid was gathered from the peritoneal cavity and its volume was determined. It was then centrifuged, and the packed tumor cell volume was measured.
Determination of viable tumor cell count
100 μL Sample of EAC cells (from three mice per group) was utilized and diluted twenty times with saline. Cells were stained with trypan blue, viable cells are not stained, while the dead ones are stained. The number of viable cells was calculated.

The mark [6] stands for this setting: Homo sapiens, HepG2, 48 h, mean ± SD of three experiments, read-out: Cytotoxic Activity IC50.
Where [7] appears, read: Homo sapiens, HCT-116, 48 h, mean ± SD of three experiments, read-out: Cytotoxic Activity IC50.

Where two headings read alike, the source gives them in different places.

What is called IC50 is the midpoint of a concentration-inhibition curve. Usually melting point stands for the temperature of the solid-liquid transition.

Turning to `CC1=C(C(=O)N/N=C/c2ccccc2)C(c2c[nH]c3ccccc23)NC(=S)N1` (stereo not drawn) [Compound 3a], the IC50 at 48 h in data set [1] amounted to 38.2 ± 2.1 µM. The IC50 in data set [2] (setting [6]) was 19.2 ± 1.5 µM; in data set [3] it was 17 ± 1.8 µM; in data set [4] (setting [7]), 15.2 ± 2.32 µM.
Take `CC1=C(C(=O)NN=Cc2ccc(C)cc2)C(c2c[nH]c3ccccc23)NC(=S)N1` (stereo not drawn) [Compound 3b, 4-(1H-indol-3-yl)-6-methyl-2-thioxo-1,2,3,4-tetrahydropyrimidine-5-carboxylic acid (4-methyl-benzylidene)-hydrazide]: the melting point fell in the range of 240 to 242 °C. The 50% inhibitory concentration (IC50) at 48 h in data set [1] was 39.1 ± 1.3 µM. The IC50 in data set [2] (setting [6]) came to 19.4 ± 2.19 µM. Besides, the IC50 in data set [3] stood at 18.5 ± 2.11 µM. Besides, the IC50 in data set [4] (setting [7]) amounted to 15.6 ± 3.15 µM.
In the same order, the values of `COc1ccccc1/C=N/NC(=O)C1=C(C)NC(=S)NC1c1c[nH]c2ccccc12` (stereo not drawn) [Compound 3c, 4-(1H-indol-3-yl)-6-methyl-2-thioxo-1,2,3,4-tetrahydropyrimidine-5-carboxylic acid (2-methoy-benzylidene)-hydrazide] are 220 to 222 °C, 37.4 ± 1.49 µM, 19.9 ± 2.06 µM, 18.9 ± 2 µM and 16.3 ± 4.16 µM.
For the compound `CC1=C(C(=O)N/N=C/c2ccccc2O)C(c2c[nH]c3ccccc23)NC(=S)N1` (stereo not drawn) [Compound 3d], the IC50 at 48 h in data set [1] is 35.3 ± 2.42 µM. Besides, the results for the IC50 in data set [2] (setting [6]), in data set [3] and in data set [4] (setting [7]) were 20.2 ± 2.33 µM, 19.2 ± 2.35 µM and 16.6 ± 1.27 µM, respectively.
`CC1=C(C(=O)NN=Cc2ccc(N(C)C)cc2)C(c2c[nH]c3ccccc23)NC(=S)N1` (stereo not drawn) [Compound 3e, 4-(1H-indol-3-yl)-6-methyl-2-thioxo-1,2,3,4-tetrahydropyrimidine-5-carboxylic acid (4-dimethylamino-benzylidene)-hydrazide]: the melting point lay within 180 to 182 °C. Further, the IC50 at 48 h in data set [1] worked out at 40 ± 2.31 µM. Further, the IC50 in data set [2] (setting [6]) came out at 20.4 ± 2.3 µM. Moreover, the half-inhibitory concentration (IC50) in data set [3] stood at 19.8 ± 2.7 µM. Also, the IC50 in data set [4] (setting [7]) came out at 16.2 ± 1.15 µM.
Turning to `CC1=C(C(=O)N/N=C/c2ccc(Cl)cc2)C(c2c[nH]c3ccccc23)NC(=S)N1` (stereo not drawn) [Compound 3f], the IC50 at 48 h in data set [1] was 29.8 ± 1.51 µM. For the same compound, the IC50 in data set [2] (setting [6]) worked out at 10.6 ± 2.32 µM; in data set [3], 10.7 ± 2.3 µM; in data set [4] (setting [7]), 10.2 ± 1.18 µM.
The like results for `CC1=C(C(=O)N/N=C/c2ccc(F)cc2)C(c2c[nH]c3ccccc23)NC(=S)N1` (stereo not drawn) [Compound 3h] were, in that order, 28.1 ± 4.22 µM, 10.4 ± 2.08 µM, 10.2 ± 2.01 µM and 10.1 ± 2.45 µM.
On to `CC1=C(C(=O)NN2C(=O)CSC2c2ccccc2)C(c2c[nH]c3ccccc23)NC(=S)N1` (stereo not drawn) [Compound 4a, 4-(1H-indol-3-yl)-6-methyl-N-(4-oxo-2-phenylthiazolidin-3-yl)-2-thioxo-1,2,3,4-tetrahydropyrimidine-5-carboxamide], for which the melting point is 270 to 272 °C. Moreover, the IC50 at 48 h in data set [1] came out at 38 ± 5.51 µM. In addition, in data set [2] (setting [6]), the IC50 is 17 ± 4.3 µM. Besides, in data set [3], the IC50 was found to be 11.2 ± 4.31 µM. Moreover, the IC50 in data set [4] (setting [7]) amounted to 12.3 ± 2.17 µM.
The like results for `CC1=C(C(=O)NN2C(=O)CSC2c2ccc(C)cc2)C(c2c[nH]c3ccccc23)NC(=S)N1` (stereo not drawn) [Compound 4b, 4-(1H-indol-3-yl)-6-methyl-N-(4-oxo-2-(p-tolyl)thiazolidin-3-yl)-2-thioxo-1,2,3,4-tetrahydropyrimidine-5-carboxamide] were, in that order, 220 to 222 °C, 39.8 ± 4.51 µM, 18 ± 3.2 µM, 11.6 ± 3.22 µM and 12.6 ± 1.05 µM.
In the same order, the values of `COc1ccccc1C1SCC(=O)N1NC(=O)C1=C(C)NC(=S)NC1c1c[nH]c2ccccc12` (stereo not drawn) [Compound 4c, 4-(1H-indol-3-yl)-N-(2-(2-methoxyphenyl)-4-oxothiazolidin-3-yl)-6-methyl-2-thioxo-1,2,3,4-tetrahydropyrimidine-5-carboxamide] are 200 to 202 °C, 29.5 ± 4.02 µM, 18.5 ± 4.38 µM, 12.3 ± 4.08 µM and 13.2 ± 1.03 µM.
In the same order, the values of `CC1=C(C(=O)NN2C(=O)CSC2c2ccccc2O)C(c2c[nH]c3ccccc23)NC(=S)N1` (stereo not drawn) [Compound 4d, N-(2-(2-hydroxyphenyl)-4-oxothiazolidin-3-yl)-4-(1H-indol-3-yl)-6-methyl-2-thioxo-1,2,3,4-tetrahydropyrimidine-5-carboxamide] are 180 to 182 °C, 29.9 ± 3.63 µM, 18.7 ± 1.2 µM, 12.6 ± 1.7 µM and 13.6 ± 1.09 µM.
As to `CC1=C(C(=O)NN2C(=O)CSC2c2ccc(N(C)C)cc2)C(c2c[nH]c3ccccc23)NC(=S)N1` (stereo not drawn) [Compound 4e, N-(2-(4-(dimethylamino)phenyl)-4-oxothiazolidin-3-yl)-4-(1H-indol-3-yl)-6-methyl-2-thioxo-1,2,3,4-tetrahydropyrimidine-5-carboxamide], the melting point lay in the range of 170 to 172 °C. The IC50 at 48 h in data set [1] was 20.2 ± 5.52 µM. Also, the IC50 in data set [2] (setting [6]) was found to be 18.6 ± 0.94 µM. In addition, the IC50 in data set [3] worked out at 14.2 ± 0.74 µM. Further, the IC50 in data set [4] (setting [7]) amounted to 13.7 ± 0.55 µM.
In the case of `O=c1[nH]cc(F)c(=O)[nH]1` [Compound 5-FU, 5-Fluorouracil, reference compound], the IC50 at 48 h in data set [1] worked out at 5.7 ± 1.5 µM. The IC50 in data set [2] (Homo sapiens; HepG2, 48 h, mean ± SD of three experiments; read-out: Cytotoxic Activity IC50) was 5.34 ± 0.4 µM; in data set [3], 5.38 ± 0.24 µM; in data set [4] (Homo sapiens; HCT-116, 48 h, mean ± SD of three experiments; read-out: Cytotoxic Activity IC50) it was 7.88 ± 0.2 µM. For the same compound, the “Tumor Volume” value in data set [5] (ascitic fluid) came out at 0.80 mL. Further, in data set [5] (mean of two experiments), the “MST (mean survival time)” value came out at 53.0 days. Further, the “Viable Tumor Cell Count” value in data set [5] (trypan blue) is listed as 19.07 10^6/mL.
For the compound `C#Cc1cccc(Nc2ncnc3cc(OCCOC)c(OCCOC)cc23)c1` [erlotinib, reference compound], the IC50 at 48 h in data set [1] was 22.5 ± 0.65 µM. Also, the IC50 in data set [3] is 6.65 ± 0.82 µM; in data set [4] (setting [7]), 7.49 ± 0.65 µM.
